From patent publication EP2241565A1, “Aurora kinase inhibitors compounds” (Universität Leipzig, priority 2009, dated 2010)
“Also recorded” adds a separate entry of the source.

Tests used:
HeLa cells = assay: Flow cytometry (FACS) DNA content / cell cycle profile; assay type: cell-based, human; conditions: 24 h; for % of cells 2<n<4 / % of cells 2n / % of cells 4n / % of cells <2n / % of cells >4n: HeLa cells; for effect on DNA content / distribution of cells in the cell cycle stages: ZM1 2 µM, (A) and (C) increasing concentrations
Method: Adherent HeLa cells were routinely passaged and maintained in D-MEM medium supplemented with 10% Fetal Bovine Serum (FBS), 1% Penicillin/Streptomycin and 2 mM L-Glutamine. The cells were cultured at 37 °C; 5% CO2. hTERT-RPE1 cells were grown in DMEM with 10% fetal bovine serum. HeLa cells constitutively expressing green fluorescent protein-conjugated Histone H2B and mRed fluorescent protein-conjugated α-tubulin were maintained in D-MEM medium supplemented with 10% Fetal Bovine Serum (FBS), 1% Penicillin/Streptomycin, 2 mM L-Glutamine and 0.5 µg/mL Puromycin and cultured at 37 °C; 5% CO2.
After treatment, FACS analysis was performed on a BD FACSCanto™ Flow Cytometer (Cat.No. 335860 BD Biosciences) using FACSDiva Software. Cells were trypsinized, washed wish PBS and fixed overnight in EtOH (-20°C). After washing with PBS, cells were stained with a propidium iodide solution (PI; 15 µg/mL)/ RNase A (30 µg/mL) for 30 min at 37 °C. RNase was added to avoid signals caused by the binding of PI to RNA.
We first examined by flow cytometry the cell cycle profiles of HeLa cells incubated in medium containing increasing concentrations of any of (A) or (C) for 24 h.

Aurora B = biological target: T1, Aurora B (Homo sapiens, UniProt Q96GD4); assay: In vitro Aurora B kinase assay (Invitrogen Z'-lyte kinase assay kit, Ser/Thr 1 peptide); assay type: biochemical; conditions: 64 µM ATP
T1 construct: purchased Invitrogen PV3970
T1 sequence (Q96GD4 whole entry): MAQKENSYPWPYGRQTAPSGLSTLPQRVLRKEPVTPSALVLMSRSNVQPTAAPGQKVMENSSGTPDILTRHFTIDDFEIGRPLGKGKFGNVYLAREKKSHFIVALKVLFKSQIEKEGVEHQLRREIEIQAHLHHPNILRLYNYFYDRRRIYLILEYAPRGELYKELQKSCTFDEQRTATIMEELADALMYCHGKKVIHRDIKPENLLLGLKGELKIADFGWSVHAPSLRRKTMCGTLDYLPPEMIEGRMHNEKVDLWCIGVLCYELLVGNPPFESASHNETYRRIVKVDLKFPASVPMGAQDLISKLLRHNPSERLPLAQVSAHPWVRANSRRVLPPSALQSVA
Method: (§1) The IC50 for the different compounds was determined with Invitrogen Z'-Iyte kinase assay kit Ser/Thr 1 peptide PV3174 following the manufacturer's instructions. […] This amount was then used in subsequent assay steps.
(§2) Compounds were prepared in 384-well plates (Greiner 384-well PP 781280) at a highest concentration of 400 µM (in 4% DMSO) and then serially diluted in 2-fold steps by hand, keeping the DMSO percentage constant. 1.25 µl of compound solution was subsequently transferred 1:1 to a 384-well assay plate (Greiner 384-well ProxiPlate Plus F 6008260) for screening at a highest concentration in the final assay of 100 µM (in 1% DMSO).
In the first step, 2.5 µl of a solution containing 8 nM Aurora A (batch S74, prepared in-house at EMBL) or 40 nM Aurora B (Invitrogen PV3970) and 4 µM Ser/Thr peptide 1 (Invitrogen PV3174) was added to each well, followed by 1.25 µl of the respective ATP solution (40 µM for Aurora A, 256 µM for Aurora B). […] In the final step, the reaction in each well was stopped by the addition of 2.5 µl Stop reagent, followed by a brief centrifugation step and immediate readout (PerkinElmer EnVision HTS; ex. 405 nm, coumarin em. 450 nm, fluorescein em. 535 nm).
Percentage phosphorylation was calculated using 0% and 100% phosphorylation controls. […]

Aurora A = biological target: T2, Aurora A (Homo sapiens, UniProt O14965); assay: In vitro Aurora A kinase assay (Invitrogen Z'-lyte kinase assay kit, Ser/Thr 1 peptide); assay type: biochemical; conditions: for IC50: 10 µM ATP; for selectivity for Aurora A against other kinases: versus Aurora B and receptor-tyrosine kinases
T2 construct: made in house
T2 sequence (O14965 1-403): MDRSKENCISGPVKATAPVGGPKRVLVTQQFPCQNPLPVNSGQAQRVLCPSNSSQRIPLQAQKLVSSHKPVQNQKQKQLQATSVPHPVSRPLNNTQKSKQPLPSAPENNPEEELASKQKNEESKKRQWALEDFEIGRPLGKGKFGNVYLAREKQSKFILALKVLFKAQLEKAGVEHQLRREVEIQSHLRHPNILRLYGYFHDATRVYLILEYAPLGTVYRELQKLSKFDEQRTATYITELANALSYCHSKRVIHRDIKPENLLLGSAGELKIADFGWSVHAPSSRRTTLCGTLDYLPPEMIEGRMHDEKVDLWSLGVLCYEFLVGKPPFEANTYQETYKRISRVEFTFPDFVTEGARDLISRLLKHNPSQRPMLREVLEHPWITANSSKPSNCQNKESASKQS
Method: as §1, §2
In the first step, 2.5 µl of a solution containing 8 nM Aurora A (batch S74, prepared in-house at EMBL) or 40 nM Aurora B (Invitrogen PV3970) and 4 µM Ser/Thr peptide 1 (Invitrogen PV3174) was added to each well, followed by 1.25 µl of the respective ATP solution (40 µM for Aurora A, 256 µM for Aurora B). The final 5 µl reaction volume consisted of 4 nM Aurora A or 20 nM Aurora B, 2 µM Ser/Thr 1 peptide, 50 mM HEPES pH 7.5, 0.01 % BRIJ-35, 10 mM MgCl2, and 1 mM EGTA, in addition to 10 µM or 64 µM ATP (for Aurora A and Aurora B, respectively). […] The plates were then spun down at 1000 rpm for 1 min, followed by incubation at rt for 1 h. In the second step, 2.5 µl of Development solution (Development A reagent diluted 1:2048 in development buffer) was added to each well, followed again by centrifugation at 1000 rpm for 1 min and subsequent incubation at rt for 1 h. In the final step, the reaction in each well was stopped by the addition of 2.5 µl Stop reagent, followed by a brief centrifugation step and immediate readout (PerkinElmer EnVision HTS; ex. 405 nm, coumarin em. 450 nm, fluorescein em. 535 nm).
Percentage phosphorylation was calculated using 0% and 100% phosphorylation controls. The former wells contained 1.25 µl DMSO (4%), 1.25 µl buffer (as above), and 2.5 µl of a 4 µM Ser/Thr 1 peptide solution (without kinase), while in the latter the peptide solution was replaced by a 4 µM solution of a supplied phosphopeptide. The action of the development reagent was assessed using protease controls (standard wells with and without development solution added in step two).
The [coumarin emission/fluorescein emission] ratio was used together with the min. and max. signals at the two wavelengths to yield percentage phosphorylation, from which inhibition was derived (according to manufacturer's instructions). Calculated inhibition values were then fitted to 11-point variable slope sigmoidal dose-response curves using GraphPad Prism software, yielding the compound IC50s.

In the case of `CC(C)Nc1nc(-c2ccco2)nc2ccc(/C=C/C(C)(C)O)cc12` [Compound (A), (E)-4-(2-(Furan-2-yl)-4-(isopropylamino)quinazolin-6-yl)-2-methylbut-3-en-2-ol], the “% of cells 2<n<4” value (HeLa cells; 20µM) is reported as 17.6%, the “% of cells 2n” value (HeLa cells; 20µM) is reported as 58.5% and the “% of cells 4n” value (HeLa cells; 20µM) is reported as 19.2%. The “% of cells <2n” value (HeLa cells; 20µM) was 4.4%, the “% of cells >4n” value (HeLa cells; 20µM) was 0.7% and the “% of cells 2<n<4” value (HeLa cells; 40µM) was 17.7%. For the same compound, the “% of cells 2n” value (HeLa cells; 40µM) was 58.5%, the “% of cells 4n” value (HeLa cells; 40µM) was 19.9% and the “% of cells <2n” value (HeLa cells; 40µM) was 3.8%. The “% of cells >4n” value (HeLa cells; 40µM) was 3.8%, the “% of cells 2<n<4” value (HeLa cells; 100µM) was 15.5% and the “% of cells 2n” value (HeLa cells; 100µM) was 48.4%. The “% of cells 4n” value (HeLa cells; 100µM) was 20.8%, the “% of cells <2n” value (HeLa cells; 100µM) was 13.8% and the “% of cells >4n” value (HeLa cells; 100µM) was 2.1%. The “effect on DNA content / distribution of cells in the cell cycle stages” value (HeLa cells) was “did not alter the distribution of cells in the different cell cycle stages”, the IC50 (Aurora B) was 16.2 µM and the IC50 (Aurora A) was 1.93 µM. For the same compound, the “selectivity for Aurora A against other kinases” value (Aurora A) was “selective inhibition of Aurora A”.

With `CC(C)Nc1nc(-c2ccco2)nc2ccc(C#CCO)cc12` [Compound (C), 3-(2-(Furan-2-yl)-4-(isoiproipylamino)quinazolin-6-yl)prop-2-yn-l-ol] the “% of cells 2<n<4” value (HeLa cells; 20µM) was 17.5%, the “% of cells 2n” value (HeLa cells; 20µM) was 55.2% and the “% of cells 4n” value (HeLa cells; 20µM) was 19.0%. The “% of cells <2n” value (HeLa cells; 20µM) was 7.6%, the “% of cells >4n” value (HeLa cells; 20µM) was 1.3% and the “% of cells 2<n<4” value (HeLa cells; 40µM) was 20.0%. For the same compound, the “% of cells 2n” value (HeLa cells; 40µM) was 47.2%, the “% of cells 4n” value (HeLa cells; 40µM) was 21.2% and the “% of cells <2n” value (HeLa cells; 40µM) was 10.5%. For the same compound, the “% of cells >4n” value (HeLa cells; 40µM) was 1.8%, the “% of cells 2<n<4” value (HeLa cells; 100µM) was 25.2% and the “% of cells 2n” value (HeLa cells; 100µM) was 21.4%. For the same compound, the “% of cells 4n” value (HeLa cells; 100µM) was 41.8%, the “% of cells <2n” value (HeLa cells; 100µM) was 10.0% and the “% of cells >4n” value (HeLa cells; 100µM) was 1.5%. For the same compound, the “effect on DNA content / distribution of cells in the cell cycle stages” value (HeLa cells) was “increased amount of 4n DNA; also recorded: dose dependent increase in the proportion of cells with more than 2n DNA content”, the IC50 (Aurora B) was 3380 µM and the IC50 (Aurora A) was 2.75 µM. For the same compound, the “selectivity for Aurora A against other kinases” value (Aurora A) was “selective inhibition of Aurora A”.
